Data on 2 compounds can be found in article PMC11259170, “Small-molecule probe for IBD risk variant GPR65 I231L alters cytokine signaling networks through positive allosteric modulation” (Science Advances, 2024).

Data set [1] in a line: Lipophilicity (logD). Format: physicochemical. The conditions noted are these: pH 7.4; pH7.4; read-out: LogD (pH7.4).
The nature of data set [2]: Solubility in phosphate buffer. Format: physicochemical. The conditions noted are these: read-out: Solubility.
Data set [3] concerns the target T1, mGPR65 (Mus musculus, UniProt Q61038).
T1 construct: expressed in transfected cells; host or cells: HeLa (ATCC CCL-2), lentiviral transduction, pLX317
Put plainly: cAMP detection in HeLa expression cell line, mGPR65. Format: cell-based. The conditions noted are these: for activity for mGPR65 among prioritized molecules: 1.56 μM; for activity for mGPR65 among prioritized molecules / cAMP activity, mGPR65: pH 7.2; for Emax: HeLa, relative to 100uM forskolin (100%) and DMSO (0%), read-out: mGPR Max Activity %; for EC50: mGPR EC50 (uM). The procedure, abridged: (§1)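 Compound was dispensed from a 10 mM DMSO stock, and puromycin-selected HeLa lines carrying lentiviral V5-tagged receptor were added at 1500 cells/well in pH 7.2 stimulation buffer. After 30 min stimulation at room temperature, cells were lysed and detection ran 1 h in the dark before cAMP TR-FRET reading.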

Data set [4] concerns the target T2, hGPR65 (Homo sapiens, UniProt Q8IYL9).
T2 construct: expressed in transfected cells; host or cells: HeLa (ATCC CCL-2), lentiviral transduction, pLX317
Put plainly: cAMP detection in HeLa expression cell line, hGPR65. Format: cell-based. The following applies: for activity for hGPR65 among prioritized molecules: 1.56 μM; for activity for hGPR65 among prioritized molecules / cAMP activity, hGPR65: pH 7.2; for Emax: HeLa, relative to 100uM forskolin (100%) and DMSO (0%), read-out: hGPR Max Activity %. The procedure, abridged:
as §1

In data set [5] the test system is GFP-expressing HeLa cells. Put plainly: cAMP detection in HeLa expression cell line, GFP control. Format: cell-based, human. The conditions noted are these: Homo sapiens, HeLa, NA = no activity; for Emax: relative to 100uM forskolin (100%) and DMSO (0%), read-out: GFP Max Activity %. The procedure, abridged: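 HeLa cells stably expressing C-terminally V5-tagged receptor or GFP (lentiviral, puromycin 3 μg/ml) stimulated at 1500 cells per well for 30 min at RT with compound (10 mM DMSO stock) in stimulation buffer at pH 7.2. cAMP detected by Lance Ultra TR-FRET after lysis and 1 h detection, excitation 337 nm, emission 620/665 nm.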

[6] abbreviates: 2nd mGPR column pair, NA = no activity.
Where [7] appears, read: first pair of columns, pH 7.2, 30 min.
[8] abbreviates: second pair of columns, pH 7.2, 30 min.
The mark [9] stands for this setting: 1st hGPR column pair, NA = no activity.
Setting [10] is: 2nd hGPR column pair, NA = no activity.
Setting [11] is: hGPR EC50 (uM), NA = no activity.

Where two headings read alike, the source gives them in different places. A value given as a limit tells only on which side of the number the result lay.

T1 sequence (Q61038 whole entry): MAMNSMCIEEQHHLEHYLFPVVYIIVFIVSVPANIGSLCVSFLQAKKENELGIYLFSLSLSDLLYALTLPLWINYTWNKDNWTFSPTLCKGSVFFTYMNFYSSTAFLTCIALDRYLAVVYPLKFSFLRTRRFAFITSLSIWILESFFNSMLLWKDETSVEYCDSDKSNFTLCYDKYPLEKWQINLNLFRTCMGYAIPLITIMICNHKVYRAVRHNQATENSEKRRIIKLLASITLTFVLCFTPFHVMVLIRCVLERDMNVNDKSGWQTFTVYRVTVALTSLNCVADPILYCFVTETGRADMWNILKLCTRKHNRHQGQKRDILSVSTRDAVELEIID
T2 sequence (Q8IYL9 whole entry): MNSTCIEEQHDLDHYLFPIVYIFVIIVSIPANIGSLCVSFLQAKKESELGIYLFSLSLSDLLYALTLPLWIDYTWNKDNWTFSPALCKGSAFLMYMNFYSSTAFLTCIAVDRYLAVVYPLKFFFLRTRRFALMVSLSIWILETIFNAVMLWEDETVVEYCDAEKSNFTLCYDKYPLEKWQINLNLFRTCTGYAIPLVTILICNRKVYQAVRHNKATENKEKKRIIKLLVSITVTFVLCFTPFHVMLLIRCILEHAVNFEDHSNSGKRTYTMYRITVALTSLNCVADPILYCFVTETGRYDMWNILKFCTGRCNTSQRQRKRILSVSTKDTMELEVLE

In the case of `Cc1ccc(NC(=O)c2cnn3c(O)cc(-c4ccc(COC(C)C)cc4)nc23)cc1F` [BRD5078, O=C(NC1=CC=C(C)C(F)=C1)C2=C3N(N=C2)C(O)=CC(C4=CC=C(COC(C)C)C=C4)=N3], the logD (in general, the decadic logarithm of the distribution of all forms, ionised or not, between an organic phase and buffer at a given pH) in data set [1] was above 4.96. The solubility (as a rule, the concentration that dissolves in the medium under given conditions) in data set [2] is below 1.56 µM. Also, the “activity for mGPR65 among prioritized molecules” value in data set [3] is recorded as “highest activity”. In addition, the Emax in data set [3] (setting [6]) was 51.5%; in data set [3] (NA = no activity), 53.6%; in data set [4] (setting [9]), 80.5%; in data set [4] (setting [10]) it was 73.3%. The EC50 (as a rule, the concentration needed to bring the measured effect to its halfway point) in data set [3] (setting [6]) was 0.944 µM; in data set [3] (setting [7]), 0.477 µM; in data set [3] (setting [8]), 0.29 µM; in data set [3] (NA = no activity) it was 0.332 µM; in data set [4] (setting [11]), 0.229 µM; in data set [4] (hGPR EC50 (uM), pH 7.2, 30 min) it was 0.347 µM. Further, the EC50 in data set [4] (hGPR EC50, NA = no activity) came out at 0.351 µM; in data set [4] (hGPR EC50, pH 7.2, 30 min), 0.264 µM. In addition, the “cAMP activity, mGPR65” value in data set [3] is “at least 40%”. In data set [4], the “activity for hGPR65” value was “strong activity for hGPR65”. Moreover, the “activity for hGPR65 among prioritized molecules” value in data set [4] was “highest activity”. Moreover, the “cAMP activity, hGPR65” value in data set [4] was “at least 40%”.
Turning to `Cc1ccc(NC(=O)c2cnn3c(O)cc(-c4ccc(COC(C)C)cc4)nc23)cc1Cl` [BRD5079, O=C(NC1=CC=C(C)C(Cl)=C1)C2=C3N(N=C2)C(O)=CC(C4=CC=C(COC(C)C)C=C4)=N3], the logD in data set [1] is above 4.23. Moreover, in data set [2], the solubility is below 1.56 µM. Further, in data set [3], the “activity for mGPR65 among prioritized molecules” value is “highest activity”. The Emax in data set [3] (setting [6]) is 48.8%; in data set [3] (NA = no activity) it was 57.5%; in data set [5] (1st GFP column pair), 1.78%; in data set [5] (2nd GFP column pair), 2.88%; in data set [4] (setting [9]), 81.1%; in data set [4] (setting [10]), 82.5%. The EC50 stood at 0.276 µM in data set [3] (setting [6]); 0.345 µM in data set [3] (setting [7]); 0.591 µM in data set [3] (setting [8]); 0.604 µM in data set [3] (NA = no activity); 4310 nM in data set [5] (1st GFP column pair); 1210 nM in data set [5] (2nd GFP column pair). Besides, the EC50 in data set [4] (setting [11]) is 0.428 µM; in data set [4] (hGPR EC50 (uM), pH 7.2, 30 min), 0.348 µM; in data set [4] (hGPR EC50, NA = no activity), 0.564 µM; in data set [4] (hGPR EC50, pH 7.2, 30 min) it was 0.417 µM. The “cAMP activity, mGPR65” value in data set [3] was “at least 40%”. Besides, the “activity for hGPR65” value in data set [4] is on record as “strong activity for hGPR65”. Moreover, the “activity for hGPR65 among prioritized molecules” value in data set [4] is “highest activity”. In addition, the “cAMP activity, hGPR65” value in data set [4] is “at least 40%”.
